Source: US11912682B2, “Isoindolinone compounds” (Monte Rosa Therapeutics, Inc., priority 2021, dated 2024)
Where two headings read alike, the source gives them in different places.

Target: GSPT1 (Homo sapiens (Human), UniProt P15170+Q96SW2)
Assay: immunofluorescence assay for GSPT1 degradation in CAL-51 cells (Example 4)
Format: cell-based
Experimental: The representative compounds were tested in an immunofluorescence assay for their activity to bind to degrade GSPT1. CAL-51 cells were purchased from DSMZ (cat. Number ACC302), sub-cultured in 90% Dulbecco's MEM (4.5 g/L glucose, Gibco 11965) +10% heat inactivated FBS (BioConcept, 2-01F136I) and incubated at 37° C., 5% CO2. For the assay, imaging microtiterplate Cell Carrier 96 Ultra (Perkin Elmer 6055302) were pre-coated with Fibronectin (Sigma F085, 30 μl at 0.2 μg/ml) in PBS (100 μl, Gibco 14190) for 45 min at room temperature, rinsed with PBS and CAL-51 cells (30 K cells/well) were plated and let to adhere overnight. Cells were treated with compounds typically using a serial dilution ranging from 30 μM to 0.1 nM for 6 hours. Compounds were stored at 10 mM DMSO stocks. Vehicle (DMSO), positive (CC-885, 10 μM) and rescue controls (positive control plus 0.2 μM bortezomib) were also included atthis stage. Cells were subsequently rinsed with PBS and fixed in 10% Formalin solution (50 μl, Sigma HT5011)) for 20 mins at room temperature. Following three consecutive PBS washes (100 μl), cells were permeabilized in 0.1% Triton X-100 in PBS (Sigma 93443, 50 μl) for 15 mins at room temperature. Following three further PBS washes, 50 μl blocking buffer (1% BSA, Sigma A4503, in PBS) was added for 45 min for signal-to-noise reduction.
Primary antibody (human GSPT1, Sigma HPA052488) was diluted in blocking buffer (dil.1/300, 35 μl/well) and incubated with the cells overnight at 4° C. After three PBS washes, Alexa-fluor 488 coupled secondary antibodies (Invitrogen, A32731, dil.1/1000), Alexa-fluor 647-Phalloidin (Invitrogen, A22287, dil.1/200) and DAPI (Thermo, #62248, dil.1/1000) were diluted in blocking buffer and incubated with the samples for 2 hours at room temperature. After three final PBS washes, samples were conserved in 100 μl PBS in the dark, until measurement. Image acquisition was performed on the Operetta High-Content Imager (Perkin-Elmer). Fluorescence intensity of Alexa-Fluor 488 (GSPT1), Alexa-Fluor 647 (Actin) and DAPI (Nucleus) were measured. For the determination of GSPT1 DC50 values, a custom algorithm implemented in the PerkinElmer image analysis software Harmony-Acapella® was developed. After user-defined setting of adjustment parameters, the analysis was run identically without human intervention for all image fields. DAPI staining of the nuclei was used to determine the location of cells using standard nuclei detection modules. Segmentation artifacts were removed by threshold-based filters for area, roundness and intensity. The outline of the cells was determined analogously from the sum of the normalized, smoothed DAPI and Actin channel, starting from each nucleus. The Alexa-Fluor 488 (GSPT1) signal intensity in each cell was finally measured, in order to obtain a Mean intensity per cell. GSPT1 degradation (DC50) was calculated after normalization to controls and data import in CDD vault Database, using non-linear regression.

[1] = 6 hours, read-out: Activity for GSPT1 degradation, Code (DC50)
[2] = GSPT1 degradation, read-out: DC50 value

GSPT1, sequence (P15170 whole entry): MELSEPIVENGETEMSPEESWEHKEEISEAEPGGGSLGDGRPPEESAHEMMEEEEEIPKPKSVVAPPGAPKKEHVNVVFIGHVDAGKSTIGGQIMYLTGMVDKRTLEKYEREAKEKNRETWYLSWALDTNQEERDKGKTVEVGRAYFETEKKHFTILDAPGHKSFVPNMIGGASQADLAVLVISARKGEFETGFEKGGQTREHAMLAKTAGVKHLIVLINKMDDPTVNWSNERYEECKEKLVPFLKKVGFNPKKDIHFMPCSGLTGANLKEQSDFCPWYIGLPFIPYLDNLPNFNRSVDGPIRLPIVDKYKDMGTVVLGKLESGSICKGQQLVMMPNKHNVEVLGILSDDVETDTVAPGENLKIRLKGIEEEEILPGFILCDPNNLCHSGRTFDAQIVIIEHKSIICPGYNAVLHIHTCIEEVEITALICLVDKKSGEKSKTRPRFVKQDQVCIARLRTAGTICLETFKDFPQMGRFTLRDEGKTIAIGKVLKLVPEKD
GSPT1, sequence (Q96SW2 whole entry): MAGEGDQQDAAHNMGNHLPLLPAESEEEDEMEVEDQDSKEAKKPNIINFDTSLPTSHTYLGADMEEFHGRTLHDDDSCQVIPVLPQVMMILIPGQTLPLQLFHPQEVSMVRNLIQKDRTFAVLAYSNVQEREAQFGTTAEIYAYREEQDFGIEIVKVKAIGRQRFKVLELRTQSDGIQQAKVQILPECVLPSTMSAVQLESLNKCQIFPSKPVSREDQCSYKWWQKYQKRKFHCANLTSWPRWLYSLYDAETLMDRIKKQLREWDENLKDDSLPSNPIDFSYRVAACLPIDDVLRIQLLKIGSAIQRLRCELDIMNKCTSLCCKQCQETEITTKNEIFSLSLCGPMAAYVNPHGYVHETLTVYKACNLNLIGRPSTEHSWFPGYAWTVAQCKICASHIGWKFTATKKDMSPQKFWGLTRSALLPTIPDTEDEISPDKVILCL
GSPT1, sequence (Q16531 2-1140 partner): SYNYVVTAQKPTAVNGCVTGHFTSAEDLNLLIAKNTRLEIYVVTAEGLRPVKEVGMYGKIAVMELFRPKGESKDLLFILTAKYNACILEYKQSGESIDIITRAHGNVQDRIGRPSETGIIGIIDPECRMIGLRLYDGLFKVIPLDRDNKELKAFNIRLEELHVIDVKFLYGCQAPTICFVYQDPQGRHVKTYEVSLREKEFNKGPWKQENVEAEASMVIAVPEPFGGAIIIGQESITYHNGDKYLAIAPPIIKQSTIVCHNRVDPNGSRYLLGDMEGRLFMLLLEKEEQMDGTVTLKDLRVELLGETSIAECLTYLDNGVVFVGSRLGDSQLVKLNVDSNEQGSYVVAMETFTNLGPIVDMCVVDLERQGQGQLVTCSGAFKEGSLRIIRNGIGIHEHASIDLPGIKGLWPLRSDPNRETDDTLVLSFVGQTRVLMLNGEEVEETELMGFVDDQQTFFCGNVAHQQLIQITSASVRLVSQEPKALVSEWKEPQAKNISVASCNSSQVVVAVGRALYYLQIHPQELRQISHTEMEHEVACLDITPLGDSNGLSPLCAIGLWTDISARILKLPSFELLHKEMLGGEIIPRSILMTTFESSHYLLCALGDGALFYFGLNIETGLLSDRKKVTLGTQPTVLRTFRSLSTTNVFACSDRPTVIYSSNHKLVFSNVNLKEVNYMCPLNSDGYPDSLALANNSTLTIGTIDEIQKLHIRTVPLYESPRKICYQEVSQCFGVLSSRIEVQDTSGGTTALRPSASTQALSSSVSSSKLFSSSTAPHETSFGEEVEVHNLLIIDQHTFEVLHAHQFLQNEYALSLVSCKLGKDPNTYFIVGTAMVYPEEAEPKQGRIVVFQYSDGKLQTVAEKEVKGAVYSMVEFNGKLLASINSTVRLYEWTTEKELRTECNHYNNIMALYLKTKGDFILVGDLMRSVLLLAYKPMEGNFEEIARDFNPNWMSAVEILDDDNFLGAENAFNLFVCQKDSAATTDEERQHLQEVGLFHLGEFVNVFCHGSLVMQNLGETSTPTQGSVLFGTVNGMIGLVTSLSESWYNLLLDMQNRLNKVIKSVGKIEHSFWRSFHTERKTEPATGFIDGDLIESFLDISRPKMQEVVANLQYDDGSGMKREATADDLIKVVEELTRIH

Row | DC50 [1] [nM] | DC50 [2] [nM] | Compound
1 | < 30 | ≤ 30 | O=C1CCC(N2Cc3ccc(COC(=O)Nc4cccc(OC(F)F)c4)cc3C2=O)C(=O)N1 (stereo not drawn) [Compound 5]
2 | 30 to 300 |  | O=C1CCC(N2Cc3ccc(COC(=O)Nc4ccc(F)c(Cl)c4)cc3C2=O)C(=O)N1 (stereo not drawn) [Compound 9]
3 | 30 to 300 |  | O=C1CCC(N2Cc3ccc(COC(=O)Nc4cc(F)cc(Cl)c4)cc3C2=O)C(=O)N1 (stereo not drawn) [Compound 12]
4 | > 300 |  | COc1ccc(Cl)cc1NC(=O)OCc1ccc2c(c1)C(=O)N(C1CCC(=O)NC1=O)C2 (stereo not drawn) [Compound 14]
5 | > 300 |  | O=C1CCC(N2Cc3ccc(COC(=O)Nc4cc(Cl)cc(OC5CCNC5)c4)cc3C2=O)C(=O)N1 (stereo not drawn) [Compound 20]
6 | > 300 |  | O=C1CCC(N2Cc3ccc(COC(=O)NC4CCCCC4)cc3C2=O)C(=O)N1 (stereo not drawn) [Compound 28]
7 | 30 to 300 |  | CCOc1cc(NC(=O)OCc2ccc3c(c2)C(=O)N(C2CCC(=O)NC2=O)C3)ccc1C (stereo not drawn) [Compound 33]
8 | 30 to 300 |  | O=C1CCC(N2Cc3ccc(COC(=O)Nc4ccc5c(c4)CCC5)cc3C2=O)C(=O)N1 (stereo not drawn) [Compound 56]
9 | 30 to 300 |  | CCc1cc(NC(=O)OCc2ccc3c(c2)C(=O)N(C2CCC(=O)NC2=O)C3)cc(C)n1 (stereo not drawn) [Compound 71]
10 | < 30 | ≤ 30 | O=C1CCC(N2Cc3ccc(COC(=O)Nc4ccc5c(c4)OC(F)(F)O5)cc3C2=O)C(=O)N1 (stereo not drawn) [Compound 79]
11 | < 30 | ≤ 30 | COc1cc(NC(=O)OCc2ccc3c(c2)C(=O)N(C2CCC(=O)NC2=O)C3)cnc1-c1ccccc1 (stereo not drawn) [Compound 90]
12 | < 30 | ≤ 30 | O=C1CCC(N2Cc3ccc(COC(=O)Nc4cc(CN5CCOCC5)cc(OC(F)F)c4)cc3C2=O)C(=O)N1 (stereo not drawn) [Compound 95]
13 | < 30 | ≤ 30 | O=C1CCC(N2Cc3ccc(COC(=O)Nc4cc(OCCN5CCOCC5)cc(OC(F)F)c4)cc3C2=O)C(=O)N1 (stereo not drawn) [Compound 96]
14 | < 30 | ≤ 30 | O=C1CCC(N2Cc3ccc(COC(=O)Nc4ccc(C5(F)CC5)nc4)cc3C2=O)C(=O)N1 (stereo not drawn) [Compound 109, (2-(2,6-dioxopiperidin-3-yl)-3-oxoisoindolin-5-yl)methyl (6-(1-fluorocyclopropyl)pyridin-3-yl)carbamate]
15 | 30 to 300 |  | CC(C)(C)C12CC(NC(=O)OCc3ccc4c(c3)C(=O)N(C3CCC(=O)NC3=O)C4)(C1)C2 (stereo not drawn) [Compound 120, (2-(2,6-dioxopiperidin-3-yl)-3-oxoisoindolin-5-yl)methyl (3-(tert-butyl)bicyclo[1.1.1]pentan-1-yl)carbamate]
16 | > 300 |  | Cc1cc(C)c(NC(=O)OCc2ccc3c(c2)C(=O)N(C2CCC(=O)NC2=O)C3)cc1Cl (stereo not drawn) [Compound 123, (2-(2,6-dioxopiperidin-3-yl)-3-oxoisoindolin-5-yl) methyl (5-chloro-2,4-dimethylphenyl)carbamate]
17 | 30 to 300 |  | Cc1c(F)cc(NC(=O)OCc2ccc3c(c2)C(=O)N(C2CCC(=O)NC2=O)C3)cc1F (stereo not drawn) [Compound 127, (2-(2,6-dioxopiperidin-3-yl)-3-oxoisoindolin-5-yl)methyl (3,5-difluoro-4-methylphenyl)carbamate]
18 | 30 to 300 |  | CC(C)(C)c1ccc(NC(=O)OCc2ccc3c(c2)C(=O)N(C2CCC(=O)NC2=O)C3)nc1 (stereo not drawn) [Compound 131, (2-(2,6-dioxopiperidin-3-yl)-3-oxoisoindolin-5-yl)methyl (5-(tert-butyl)pyridin-2-yl)carbamate]
19 | 30 to 300 |  | Cc1ccc(NC(=O)OCc2ccc3c(c2)C(=O)N(C2CCC(=O)NC2=O)C3)cc1F (stereo not drawn) [Compound 133, (2-(2,6-dioxopiperidin-3-yl)-3-oxoisoindolin-5-yl)methyl (3-fluoro-4-methylphenyl)carbamate]
20 | > 300 |  | O=C1CCC(N2Cc3ccc(COC(=O)Nc4ccccc4)cc3C2=O)C(=O)N1 (stereo not drawn) [Compound 138, (2-(2,6-dioxopiperidin-3-yl)-3-oxoisoindolin-5-yl)methyl phenylcarbamate]
21 | 30 to 300 |  | Cc1cc(F)c(NC(=O)OCc2ccc3c(c2)C(=O)N(C2CCC(=O)NC2=O)C3)cc1Cl (stereo not drawn) [Compound 141, (2-(2,6-dioxopiperidin-3-yl)-3-oxoisoindolin-5-yl)methyl (5-chloro-2-fluoro-4-methylphenyl)carbamate]
22 | 30 to 300 |  | CC(C)(C)c1ccc(NC(=O)OCc2ccc3c(c2)C(=O)N(C2CCC(=O)NC2=O)C3)c(F)c1 (stereo not drawn) [Compound 142, (2-(2,6-dioxopiperidin-3-yl)-3-oxoisoindolin-5-yl)methyl (4-(tert-butyl)-2-fluorophenyl)carbamate]
23 | 30 to 300 |  | Cc1cc(Cl)cc(NC(=O)OCc2ccc3c(c2)C(=O)N(C2CCC(=O)NC2=O)C3)c1 (stereo not drawn) [Compound 144, (2-(2,6-dioxopiperidin-3-yl)-3-oxoisoindolin-5-yl)methyl (3-chloro-5-methylphenyl)carbamate]
24 | 30 to 300 |  | Cc1cc(F)cc(NC(=O)OCc2ccc3c(c2)C(=O)N(C2CCC(=O)NC2=O)C3)c1 (stereo not drawn) [Compound 146, (2-(2,6-dioxopiperidin-3-yl)-3-oxoisoindolin-5-yl)methyl (3-fluoro-5-methylphenyl) carbamate]
25 | > 300 |  | CCc1nscc1NC(=O)OCc1ccc2c(c1)C(=O)N(C1CCC(=O)NC1=O)C2 (stereo not drawn) [Compound 147]
26 | < 30 | ≤ 30 | CC(C)(C)c1cccc(NC(=O)OCc2ccc3c(c2)C(=O)N(C2CCC(=O)NC2=O)C3)c1 (stereo not drawn) [Compound 153, (2-(2,6-dioxopiperidin-3-yl)-3-oxoisoindolin-5-yl)methyl (3-(tert-butyl)phenyl)carbamate]

Row | Compound | DC50 [1] [nM] | DC50 [2] [nM]
27 | Cc1cc(NC(=O)OCc2ccc3c(c2)C(=O)N(C2CCC(=O)NC2=O)C3)cc(F)c1C (stereo not drawn) [Compound 117] | 30 to 300 | 
28 | Cc1cc(NC(=O)OCc2ccc3c(c2)C(=O)N(C2CCC(=O)NC2=O)C3)cc(C(C)(C)C)n1 (stereo not drawn) [Compound 118] | < 30 | ≤ 30
29 | Cc1cc(Cl)c(NC(=O)OCc2ccc3c(c2)C(=O)N(C2CCC(=O)NC2=O)C3)cc1Cl (stereo not drawn) [Compound 119] | > 300 | 
30 | Cc1ccc(OC(F)(F)F)cc1NC(=O)OCc1ccc2c(c1)C(=O)N(C1CCC(=O)NC1=O)C2 (stereo not drawn) [Compound 128] | > 300 | 
31 | O=C1CCC(N2Cc3ccc(COC(=O)NC4COC(c5ccccc5)OC4)cc3C2=O)C(=O)N1 (stereo not drawn) [Compound 130] | > 300 | 
32 | O=C1CCC(N2Cc3ccc(COC(=O)Nc4cc(F)c(F)c(Cl)c4)cc3C2=O)C(=O)N1 (stereo not drawn) [Compound 132] | 30 to 300 | 
33 | O=C1CCC(N2Cc3ccc(COC(=O)Nc4cc(C(F)(F)F)ns4)cc3C2=O)C(=O)N1 (stereo not drawn) [Compound 139] | 30 to 300 | 
34 | O=C1CCC(N2Cc3ccc(COC(=O)Nc4cc(OC(F)(F)F)ccc4F)cc3C2=O)C(=O)N1 (stereo not drawn) [Compound 145, (2-(2,6-dioxopiperidin-3-yl)-3-oxoisoindolin-5-yl)methyl(2-fluoro-5-(trifluoromethoxy)phenyl)carbamate] | 30 to 300 | 
